Laboratory results from PubChem BioAssay AID1033 (Sanford-Burnham Center for Chemical Genomics, 2008).
Active and inactive are the calls of the source. How the calls were made is not given here.

Biological target: Chaperone protein DnaK (Escherichia coli (strain K12)) (UniProt P0A6Y8)
Experiment: binders of DnaK substrate-binding domain, biophysical, NMR, chaperone (AID 1033)
Details: Purified DnaK SBD, NMR ligand binding

Chain of Chaperone protein DnaK (Escherichia coli (strain K12)) (P0A6Y8 whole entry, looked up, the tested form may be a part): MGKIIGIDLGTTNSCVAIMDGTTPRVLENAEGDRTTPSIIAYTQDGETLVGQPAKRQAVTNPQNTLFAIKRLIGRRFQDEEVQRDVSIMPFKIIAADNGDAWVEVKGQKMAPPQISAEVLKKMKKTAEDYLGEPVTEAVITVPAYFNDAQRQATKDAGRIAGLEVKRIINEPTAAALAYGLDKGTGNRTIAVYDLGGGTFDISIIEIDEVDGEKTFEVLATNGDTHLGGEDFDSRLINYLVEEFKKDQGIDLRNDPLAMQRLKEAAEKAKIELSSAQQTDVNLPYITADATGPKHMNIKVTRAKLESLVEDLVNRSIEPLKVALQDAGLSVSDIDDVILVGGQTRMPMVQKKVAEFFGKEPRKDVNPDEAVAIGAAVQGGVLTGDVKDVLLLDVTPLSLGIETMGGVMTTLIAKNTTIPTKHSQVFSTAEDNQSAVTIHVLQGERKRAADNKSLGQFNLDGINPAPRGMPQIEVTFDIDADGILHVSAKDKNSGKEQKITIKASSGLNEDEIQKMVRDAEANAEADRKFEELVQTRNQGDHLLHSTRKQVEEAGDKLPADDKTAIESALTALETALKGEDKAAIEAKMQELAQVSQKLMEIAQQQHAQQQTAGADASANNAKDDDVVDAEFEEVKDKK

SMILES	Kd
CN1CCC(N2CCOCC2)CC1	> 4 mM (inactive)
O=C(NN=C1CCCC1)c1ccncc1	> 4 mM (inactive)
CC(=O)Oc1cccc2ccc(=O)[nH]c12	> 4 mM (inactive)
Cn1c(O)c(/C=C2\C=CC=N2)c(=O)[nH]c1=O	> 4 mM (inactive)
COc1ccccc1-c1nc(=S)[nH][nH]1	> 4 mM (inactive)
CC1=C2C(=CO[C@H](C)[C@H]2C)C(=O)C(C(=O)O)=C1O	> 4 mM (inactive)
NC(=O)NC1NC(=O)NC1=O (stereo not drawn)	> 4 mM (inactive)
CC(=O)c1sc(NC(=O)C=C(C)C)nc1C	> 4 mM (inactive)
Cc1[nH]c2ccccc2c1C=Nn1cncn1	> 4 mM (inactive)
O=C(Nc1ccon1)c1ccc2c(c1)OCO2	> 4 mM (inactive)
NCc1ccc(S(N)(=O)=O)cc1	> 4 mM (inactive)
CC(=O)c1cccc(N=C2NC(=O)CS2)c1	> 4 mM (inactive)
Oc1ccccc1-c1nnco1	> 4 mM (inactive)
O=C(Nc1ccc2c(c1)OCO2)c1cccc(F)c1	> 4 mM (inactive)
CC(=O)Nc1ccc(Nc2nnc(C)c(=O)[nH]2)cc1	> 4 mM (inactive)
CCP(=O)(CC)c1cccc(C)c1	> 4 mM (inactive)
Cc1nc(-c2cccc(-c3noc(C)n3)c2)no1	> 4 mM (inactive)
O=C1CC(c2c[nH]c3ccccc23)C(=O)N1 (stereo not drawn)	> 4 mM (inactive)
CC(=O)c1ccc(NS(=O)(=O)c2cccc(C)c2)cc1	> 4 mM (inactive)
N#CCCn1ccnc1-c1ccccc1	> 4 mM (inactive)
C=CCCCCCCCCCCCc1ccco1	> 4 mM (inactive)
O=C1CSC(=Nc2ccccc2)N1	> 4 mM (inactive)
CC(=O)Oc1ccc2c(c1C(C)C)CCC1C(C)(C)CCC[C@]21C (stereo partly drawn)	> 4 mM (inactive)
O=C(O[C@@H]1Cc2c(O)cc(O)cc2O[C@@H]1c1cc(O)c(O)c(O)c1-c1c([C@H]2Oc3cc(O)cc(O)c3C[C@H]2O)cc(O)c(O)c1O)c1cc(O)c(O)c(O)c1	> 4 mM (inactive)

SMILES	Kd
O=C1CNC(=O)N1Cc1ccc(Br)cc1	> 4 mM (inactive)
CC(=O)Nc1ccccc1OCC(N)=O	> 4 mM (inactive)
O=S(=O)(NCc1ccco1)N1CCOCC1	> 4 mM (inactive)
Cc1ncoc1C(=O)Nc1ccccc1C(N)=O	> 4 mM (inactive)
CC1=CC(=O)CC(C)(C)C1(O)/C=C/C(C)=C\C(=O)O (stereo not drawn)	> 4 mM (inactive)
COc1ccc(C(C)=O)c(OC)c1	> 4 mM (inactive)
CC(=O)Nc1ccc(S(=O)(=O)NCC2CCCO2)cc1 (stereo not drawn)	> 4 mM (inactive)
CN1CN/C(=N\[N+](=O)[O-])N(c2ccccc2)C1	> 4 mM (inactive)
O=C(Nc1ccccc1)Nc1ccccc1	> 4 mM (inactive)
O=c1c(O)cccc2cc(O)c(O)c(O)c12	> 4 mM (inactive)
O=c1[nH]c(N2CCOCC2)nc2ccccc12	> 4 mM (inactive)
Cc1cc(C)nc(/N=C(/N)N2CCOCC2)n1	> 4 mM (inactive)
CN=C(C)c1c(O)n(C)c(=O)n(C)c1=O	> 4 mM (inactive)
NN1C(=O)CSC1=Nc1ccccc1	> 4 mM (inactive)
CC(C)c1c(O)ccc2c1CCC1[C@@](C)(C=O)CCC[C@]21C (stereo partly drawn)	> 4 mM (inactive)
O=C(NCc1cccs1)c1nn2cccnc2c1Cl	> 4 mM (inactive)
OCC1=Cc2ccccc2OC1	> 4 mM (inactive)
COC(=O)C1=C(C)N(Cc2ccco2)C(=O)C1	> 4 mM (inactive)
N[C@@H](Cc1cc(I)c(Oc2cc(I)c(O)c(I)c2)c(I)c1)C(=O)O	> 4 mM (inactive)
O=C(COc1ccccc1O)NCCO	> 4 mM (inactive)
O=C1CCN(c2ccccc2)N1	> 4 mM (inactive)
COc1c2c(c(CC=C(C)C)c3oc(=O)c(-c4ccc(O)cc4)c(O)c13)OC(C)(C)C=C2	> 4 mM (inactive)
O=C(O)CCCCCCCC(=O)O	> 4 mM (inactive)
CCSc1nc(=S)n(CC)c(C)c1C(C)=O	> 4 mM (inactive)
